“Also recorded” adds a separate entry of the source. Bridge positions count the residues as written; N and C are the ends. Ends that are not written are not given here.
Assays:
[1] = test system: SARS-CoV-2 NP versus SARS-CoV NP, MERS-CoV NP, HCoV-OC43 NP, SARS-CoV-2 S1, S-RBD, MERS-CoV S1, VEGF165, HSA, AFP, CEA, BSA; assay type: binding; conditions: n = 3
SARS-CoV-2 NP [2] = target: T1, SARS-CoV-2 NP (Severe acute respiratory syndrome coronavirus 2, UniProt P0DTC9)
SARS-CoV-2 NP [3] = target: T1, SARS-CoV-2 NP; remark: listed apart in the source
SARS-CoV-2 NP [4] = target: T1, SARS-CoV-2 NP; remark: listed apart in the source

| Sequence | specificity of binding [1] | binding to SARS-CoV-2 NP (positive clone) (SARS-CoV-2 NP [2]) | relative affinity for NP (SARS-CoV-2 NP [2]) | Frequency among sequenced phage clones (SARS-CoV-2 NP [3]) | binding specificity and affinity in words (SARS-CoV-2 NP [4]) |
| --- | --- | --- | --- | --- | --- |
| ACGTKPTKFC (disulfide 2-10 (inferred)) [N1] | specifically recognizes SARS-CoV-2 NP; also recorded: binds specifically to SARS-CoV-2 NP; also recorded: has the best specificity | have the ability to bind to SARS-CoV-2 NP with a significant difference compared to the control (P < 0.001) | may have higher affinity for NP than the other clones | 6/26 | – |
| ACGTKPTKFCGGGGGS (disulfide 2-10 (inferred)) [peptide probe N1] | – | – | – | – | binds to SARS-CoV-2 NP with good specificity and high affinity |
| ACLKTYWYNC (disulfide 2-10 (inferred)) [N5] | can bind to either MERS-CoV NP, SARS-CoV NP, or HCoV-OC43 NP; also recorded: limited selectivity | have the ability to bind to SARS-CoV-2 NP with a significant difference compared to the control (P < 0.001) | may have higher affinity for NP than the other clones | 2/26 | – |
| ACTPRSANYC (disulfide 2-10 (inferred)) [N4] | can bind to either MERS-CoV NP, SARS-CoV NP, or HCoV-OC43 NP; also recorded: limited selectivity | – | – | 3/26 | – |
